Columns and labels:
hRev1 = molecular target: T1, hRev1 (Homo sapiens, UniProt Q9UBZ9); assay: Gel-based primer extension assay; type: biochemical; settings: 10 μM; 10 nM Rev1
T1 construct: hRevl (residues 330-833); made in house
T1 sequence (Q9UBZ9 330-833): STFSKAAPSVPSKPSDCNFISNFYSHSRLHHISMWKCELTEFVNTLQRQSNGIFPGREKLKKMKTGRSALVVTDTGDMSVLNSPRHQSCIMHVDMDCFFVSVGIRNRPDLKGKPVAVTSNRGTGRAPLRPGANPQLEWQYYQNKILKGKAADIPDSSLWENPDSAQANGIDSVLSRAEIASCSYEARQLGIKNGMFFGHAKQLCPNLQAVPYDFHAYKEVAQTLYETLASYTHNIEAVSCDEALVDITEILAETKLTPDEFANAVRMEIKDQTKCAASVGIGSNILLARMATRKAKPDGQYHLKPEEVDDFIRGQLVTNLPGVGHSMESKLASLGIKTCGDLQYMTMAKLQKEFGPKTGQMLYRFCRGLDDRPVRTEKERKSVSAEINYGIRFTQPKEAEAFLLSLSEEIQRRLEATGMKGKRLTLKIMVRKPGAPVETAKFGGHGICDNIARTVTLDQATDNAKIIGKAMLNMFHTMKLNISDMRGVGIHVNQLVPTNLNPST

T98G spheroids (GSC) = assay: GSC clonogenic survival assay; type: cell-based; settings: 50 nM, 3 hours
Description: GSC clonogenic survival assay. Spheroids proficient and deficient in hpol κ were cultured for 12 days as described above before treating with PNR 7-48 (50 nM) for 3 hours. Spheroids were harvested, titrated into single cell populations and counted via trypan blue exclusion assay. Around 500 viable cells were plated per well in a 6 well dish and allowed to recover for 8-10 days in MEM with 10% FBS. Cells were fixed with 4% formaldehyde (v/v) for 30 min followed by staining with crystal violet (Sigma Aldrich, St. Louis, MO) for 30 min. Total number of colonies were counted using the EVOS microscope, with viable colonies consisting of 25 cells or more. This experiment was done in technical triplicate. As with spheroid growth, clonogenic survival was impeded for T98G cells lacking hpol κ activity (FIG. 11).

NT2 cells = assay: Clonogenic survival assay; type: cell-based, human; settings: IAG-10 and TMZ in combination

Cl.[H]/N=C(\N)NN=Cc1cn(C(=O)c2cccc3ccccc23)c2ccc(Cl)cc12 [IAG-10, (E)-2-((1-(1-naphthoyl)-5-chloro-1H-indol-3-y1)methylene)hydrazine-1-carboximidamide hydrochloride]
polymerase activity relative to DMSO control (hRev1): only hpol κ was inhibited
GSC differentiation (T98G spheroids (GSC)): inhibit GSC differentiation
colony formation ability, combination (NT2 cells): did not exhibit changes in colony formation ability

Source: patent US12685733B2, “Indole molecules and use thereof in the inhibition of DNA polymerases” (BioVentures, LLC, priority 2019, dated 2026)
